Test results reported in US9574174B2, “Cell culture” (PLASTICELL LIMITED, priority 2002, dated 2017).

Tests used:
mouse ES cells = assay: RT-PCR detection of differential gene expression in ES cell units after split-split culture; format: cell-based; conditions: DMEM, 1 μM, FIG. 11
Protocol: Pluripotent mouse ES cell units were cultured for five days in ES cell medium (see example 3), the ES medium was decanted and the cell units washed twice with PBS to remove traces of ES medium. The bead population was split into three groups, and the PBS decanted and replaced with one of (i) ES cell medium; (ii) Dulbecco's modified Eagle's medium (DMEM) with 10% fetal calf serum; or (iii) Chemically Defined Medium (CDM; Wiles M V, Johansson B M, 1999, Exp. Cell Res., vol 247, p. 241-8). After one hour culture under standard conditions, each of the three groups were split into three further groups, each of which was incubated in one of: (i) the medium in which the cell groups were cultured; the medium in which the cell groups were cultured including 1 μM LiCl; or (iii) the medium in which the cell groups were cultured including 1 μm retinoic acid (RA). Every other day half the medium was replaced with the respective fresh medium.
Cell units of mouse ES cells induced to differentiate by split-split culture (see example 4) were washed with PBS, and RNA prepared from the cell units using Rneasy reagents according to manufacturer's instructions (Qiagen). RNA samples were then used to prepare first strand cDNA with oligo-dT priming using reverse transcriptase according to the manufacturer's instructions (Invitrogen). […]

[1] = tested on: cytochrome P450 (CyP450) metabolic enzymes; assay: CyP450 ethoxyresorufin assay on HepG2 cell units; format: cell-based, human
Protocol: A split-pool culture experiment was performed in order to assay tissue culture conditions that might affect a particular cellular process, namely the expression and/or activity of cytochrome P450 (CyP450) metabolic enzymes. Members of this class of enzyme, such as 1A1 and 1A2, can be assayed with the use of a substrate, ethoxyresorufin, that is enzymatically hydrolyzed to produce a product, resorufin, that has distinct fluorescence characteristics that can be used to measure CyP450 enzyme activity. The expression of CyP450 enzymes can be regulated by inducer molecules, such as β-naphthoflavone, and inhibitors such as α-naphthoflavone, quinidine, or aminotriazole. It is also possible for some molecules to induce expression of a CyP450 gene(s), but inhibit activity of the enzyme product of that gene. Therefore, complicated patterns of expression and activity can arise according to the pattern of serial exposure of cells to regulatory compounds. […]
For the CyP450 assay, aliquots of beads in growth medium were removed and the enzyme substrate ethoxyresorufin was added to a final concentration of 10 μM. The samples of beads were placed on a microscope slide with a cover slip, and observed immediately with an epifluorescent microscope using a standard filter set for Texas Red/rhodamine fluorescence (see FIG. 9). […]

SMILES | decrease in Oct4 (mouse ES cells) | P450 level / conversion of ethoxyresorufin to fluorescent product ([1]; HepG2 cell units following a split pool experiment, FIG. 9 Panels E/F) | time until enzyme activity (resorufin fluorescence) is evident after addition of ethoxyresorufin ([1]; HepG2 cell units on CYTODEX 3 treated in a control experiment, 10 μM ethoxyresorufin, control cells about 15-20 minutes) [min]
[Cl-].[Li+] [LiCl] | inhibited the reduction | – | –
O=c1cc(-c2ccccc2)oc2ccc3ccccc3c12 [β-naphthoflavone] | – | high levels of P450 | 5 to 10
